For 12 compounds, GI50 and TGI results are on record in PubChem BioAssay (NCI).

Molecules are shown by their SMILES. Values joined by “and” are separate entries in the source; they are usually repeats but may differ in a detail not shown here. Equal entries are not always repeated.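 Protocol summary: plate cells (96-well), add compound at 5 concentrations, incubate 48 h, interpolate endpoints linearly. At the GI50, growth is halved. TGI is the concentration that stops growth completely.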

Some test systems named below: TK-10 renal; OVCAR-4 ovarian; HCC-2998 colon; CCRF-CEM leukemia; A498 renal; UO-31 renal; MCF7 breast; EKVX NSCLC; NCI-H460 lung; NCI-H226 lung.
What all share (assay): inhibition of tumour cell growth, NCI panel, 48 h

Turning to `Br[C](Br)(Br)[Hg][c]1ccccc1`, the GI50 is 17.5 µM with TK-10 renal; 19.9 µM in the test with OVCAR-4 ovarian; 14.4 µM in the test on HCC-2998 colon; 1.49 µM in the test with CCRF-CEM leukemia; 16.2 µM with A498 renal; 20.2 µM in the test with UO-31 renal. Further, the GI50 with MCF7 breast is 4.85 µM; with EKVX NSCLC, 22 µM; in the test on NCI-H460 lung, 16.8 µM; with NCI-H226 lung, 16.8 µM. In addition, the TGI in the test on TK-10 renal is 31.4 µM; with OVCAR-4 ovarian, 41.9 µM; in the test on HCC-2998 colon, 27.7 µM; in the test on CCRF-CEM leukemia, 9.13 µM; in the test on A498 renal it was 30 µM; in the test on UO-31 renal it was 34.5 µM. Besides, the TGI worked out at 19.4 µM in the test with MCF7 breast, 37.7 µM with EKVX NSCLC, 37.9 µM with NCI-H460 lung and 35.8 µM with NCI-H226 lung.

In the case of `COc1cc(/C=C/c2cc(/C=C/c3ccc(O)c(OC)c3)n(C(=O)Nc3ccc(C)cc3C)n2)ccc1O`, the GI50 was 0.529 µM with TK-10 renal; 0.464 µM in the test on OVCAR-4 ovarian; 0.738 µM with HCC-2998 colon; 0.232 µM in the test with CCRF-CEM leukemia; 0.538 µM in the test with A498 renal; 0.362 µM with UO-31 renal. Besides, the GI50 with MCF7 breast was 0.317 µM; in the test with EKVX NSCLC it was 0.995 µM; with NCI-H226 lung, 0.389 µM. In addition, the TGI in the test with TK-10 renal is 2.16 µM; in the test on OVCAR-4 ovarian, 2.99 µM; in the test with HCC-2998 colon, 4.26 µM; in the test with CCRF-CEM leukemia, > 100 µM; in the test on A498 renal it was 1.93 µM; with UO-31 renal it was 1.74 µM. The TGI is 1.37 µM in the test on MCF7 breast, 5.76 µM in the test on EKVX NSCLC and 2.1 µM with NCI-H226 lung.

In the case of `COc1cc(C(=O)c2cc(C)c3[nH]c4ccc(C)cc4c3c2C)cc(OC)c1OC`, the GI50 in the test with TK-10 renal was 3.37 µM; with OVCAR-4 ovarian, 0.0714 µM; in the test on HCC-2998 colon it was < 0.01 µM; in the test on CCRF-CEM leukemia it was < 0.01 µM; in the test with A498 renal it was < 0.01 µM; with UO-31 renal, < 0.01 µM. In addition, the GI50 with MCF7 breast, with EKVX NSCLC, with NCI-H460 lung and in the test with NCI-H226 lung was < 0.01 µM in each case. Further, the TGI with TK-10 renal is > 100 µM; in the test on OVCAR-4 ovarian it was > 100 µM; in the test with HCC-2998 colon, > 100 µM; with CCRF-CEM leukemia it was > 100 µM; in the test with A498 renal, < 0.01 µM; with UO-31 renal it was > 100 µM. The TGI with MCF7 breast, in the test on EKVX NSCLC, in the test with NCI-H460 lung and in the test on NCI-H226 lung was > 100 µM each time.

Consider `ClCC[N+]12CC[N+](CCCl)(CC1)C2`, for which the TGI with TK-10 renal, in the test with OVCAR-4 ovarian, in the test on HCC-2998 colon, in the test on CCRF-CEM leukemia, with A498 renal and in the test with UO-31 renal was > 100 µM throughout. Moreover, the TGI in the test on MCF7 breast, with EKVX NSCLC, in the test with NCI-H460 lung and in the test on NCI-H226 lung was > 100 µM throughout.

`COc1ccc(/C=C/C(=O)C(CC2CCC2)C(=O)/C=C/c2ccc(OC)c(OC)c2)cc1OC`: the GI50 with TK-10 renal is 2.59 µM; with OVCAR-4 ovarian, 2.34 µM; with HCC-2998 colon, 1.85 µM; with CCRF-CEM leukemia, 2.05 µM; in the test on A498 renal, 1.82 µM; with UO-31 renal, 1.56 µM. Further, the GI50 with MCF7 breast was 0.6 µM; in the test on EKVX NSCLC it was 2.73 µM; in the test on NCI-H460 lung, 2.01 µM; in the test on NCI-H226 lung, 2.68 µM. In addition, the TGI in the test with TK-10 renal is 4.88 µM; in the test with OVCAR-4 ovarian, > 100 µM; with HCC-2998 colon, 3.41 µM; in the test on CCRF-CEM leukemia, > 100 µM; in the test with A498 renal, 3.33 µM; with UO-31 renal it was 2.9 µM. For the same compound, the TGI with MCF7 breast worked out at 40.5 µM; with EKVX NSCLC it was 9.9 µM; in the test with NCI-H460 lung it was 4.14 µM; in the test with NCI-H226 lung it was 6.74 µM.

Regarding `CC1=C(O)C(=O)C=C2C1=CC=C1[C@@]2(C)CC[C@@]2(C)[C@@H]3C[C@](C)(C(=O)O)CC[C@]3(C)CC[C@]12C`, the TGI came to 0.0804 µM with TK-10 renal; 0.174 µM in the test with OVCAR-4 ovarian; 0.155 µM with HCC-2998 colon; 0.15 µM with CCRF-CEM leukemia; 0.142 µM in the test on A498 renal; 0.151 µM in the test on UO-31 renal. For the same compound, the TGI with MCF7 breast was determined as 0.266 µM; in the test with EKVX NSCLC, 0.174 µM; with NCI-H460 lung, 0.384 µM; in the test on NCI-H226 lung, 0.366 µM.

With `Cc1ccc(-c2nc3ccc(Cl)cc3c(=O)n2N2C(=O)CSC2c2ccccc2Cl)cc1` (stereo unspecified), the GI50 was 4.54 µM with OVCAR-4 ovarian; > 100 µM with HCC-2998 colon; > 100 µM in the test on CCRF-CEM leukemia; 5.91 µM in the test on A498 renal; 3.66 µM in the test on UO-31 renal; 26.9 µM in the test with MCF7 breast. Besides, the values for the GI50 in the test with EKVX NSCLC, with NCI-H460 lung and in the test with NCI-H226 lung were 4.15 µM, 3.68 µM and 5.14 µM, respectively. The TGI in the test with OVCAR-4 ovarian, in the test with HCC-2998 colon, with CCRF-CEM leukemia, with A498 renal, in the test on UO-31 renal and in the test with MCF7 breast was > 100 µM throughout. In addition, the TGI with EKVX NSCLC, in the test with NCI-H460 lung and with NCI-H226 lung was > 100 µM throughout.

`Cc1ccc2[nH]c(O)c(N=Nc3ccc(S(N)(=O)=O)cc3)c2c1`: the GI50 is 10.1 µM with TK-10 renal; 6.62 µM with OVCAR-4 ovarian; 14.8 µM with HCC-2998 colon; 15.6 µM in the test on CCRF-CEM leukemia; > 25 µM with A498 renal; 12.7 µM in the test on UO-31 renal. In addition, the GI50 with MCF7 breast was 8.4 µM; in the test with EKVX NSCLC, > 25 µM; with NCI-H460 lung it was 6.86 µM; in the test with NCI-H226 lung, 7.92 µM. In addition, the TGI with TK-10 renal, with OVCAR-4 ovarian, in the test with HCC-2998 colon, with CCRF-CEM leukemia, with A498 renal and in the test on UO-31 renal was > 25 µM each time. Besides, the TGI in the test with MCF7 breast, in the test with EKVX NSCLC, with NCI-H460 lung and in the test with NCI-H226 lung was > 25 µM each time.

For `COc1cccc(C#Cc2ccccc2C#CCCCCO)c1`, the GI50 in the test with TK-10 renal was 13.1 µM; in the test with OVCAR-4 ovarian, 20.4 µM; in the test with HCC-2998 colon, 5.95 µM; in the test on CCRF-CEM leukemia it was 3.5 µM; with A498 renal it was 10.3 µM; in the test with UO-31 renal it was 8.79 µM. Also, the GI50 is 16.1 µM in the test with MCF7 breast, 8.74 µM with EKVX NSCLC, 16.1 µM in the test on NCI-H460 lung and 15.7 µM in the test with NCI-H226 lung. Besides, the TGI in the test on TK-10 renal worked out at 29.6 µM; in the test with OVCAR-4 ovarian, 44.2 µM; in the test on HCC-2998 colon, 19.4 µM; in the test with CCRF-CEM leukemia, 17.4 µM; in the test on A498 renal it was 23.8 µM; in the test on UO-31 renal it was 22.3 µM. Also, the TGI with MCF7 breast was 41.1 µM; in the test on EKVX NSCLC, 24.3 µM; in the test on NCI-H460 lung, 34 µM; in the test on NCI-H226 lung, 40.5 µM.

As to `CC1=C(C(=O)Nc2ccc(F)c(Cl)c2)C(c2cccc(O)c2)NC(=O)N1` (stereo unspecified), the GI50 was > 100 µM in the test with TK-10 renal; > 100 µM in the test with HCC-2998 colon; 79.3 µM with CCRF-CEM leukemia; 5.04 µM in the test with A498 renal; 71.4 µM in the test with UO-31 renal; 58.8 µM in the test on MCF7 breast. Besides, the GI50 was 78.1 µM with EKVX NSCLC, > 100 µM with NCI-H460 lung and 85.9 µM in the test with NCI-H226 lung. In addition, the TGI in the test on TK-10 renal, with HCC-2998 colon, with CCRF-CEM leukemia, in the test with A498 renal, in the test on UO-31 renal and with MCF7 breast was > 100 µM in each case. Besides, the TGI with EKVX NSCLC, in the test on NCI-H460 lung and in the test on NCI-H226 lung was > 100 µM in each case.

As for `CCCSc1nc(COC(=O)NC)c(COC(=O)NC)n1C`, the TGI in the test with OVCAR-4 ovarian was > 100 µM; in the test with HCC-2998 colon, > 100 µM; in the test on CCRF-CEM leukemia it was 86.1 µM and > 64.3 µM; in the test with A498 renal it was > 100 µM; in the test on UO-31 renal, > 100 µM; in the test with MCF7 breast it was > 100 µM. Moreover, the TGI with EKVX NSCLC, with NCI-H460 lung and with NCI-H226 lung was > 100 µM each time.

Turning to `O=c1cccc(C#CC#CC2=CCCCC2)o1`, the GI50 was 8.69 µM in the test with TK-10 renal; 28 µM in the test on OVCAR-4 ovarian; 0.649 µM in the test with CCRF-CEM leukemia; 19.8 µM in the test on A498 renal; 3.99 µM with UO-31 renal; 5.04 µM with MCF7 breast. The GI50 in the test with EKVX NSCLC is 10.2 µM; with NCI-H460 lung it was 10.6 µM; in the test on NCI-H226 lung, 6.87 µM. Besides, the TGI was 14.2 µM in the test with TK-10 renal; > 49.3 µM with OVCAR-4 ovarian; 5.5 µM in the test with CCRF-CEM leukemia; 36.8 µM in the test with A498 renal; 11 µM in the test on UO-31 renal; 13.4 µM in the test with MCF7 breast. Besides, the figures for the TGI in the test with EKVX NSCLC, with NCI-H460 lung and in the test on NCI-H226 lung were 25.8 µM, 21.8 µM and 14.6 µM, respectively.
